Patent publication US20230381774A1, “MICROFLUDIC LAB-ON-CHIP DEVICE, MATRIX, SMALL MOLECULES AND THREE-DIMENSIONAL SPHEROIDS FOR CELL REPROGRAMMING” (The Regents of the University of California, priority 2022, published 2023)
“Also recorded” adds a separate entry of the source.

How the values were obtained:
Format in all cases: cell-based, mouse
[1] = test system: BAM-transduced fibroblasts; assay: iN reprogramming of BAM-transduced fibroblasts with cytoskeletal and adhesion inhibitors (TUBB3+ iN cells, 2 weeks); details: for dose response of reprogramming efficiency: varying concentrations
Procedure: To examine whether these changes in cell stiffness, actin structure and expression of contractility-mediating genes were involved in iN reprogramming, we evaluated the effects of disrupting the cytoskeleton using small molecule inhibitors. For these experiments, BAM-transduced fibroblasts were reprogrammed as in FIG. 1A and chemical compounds known to perturb the cytoskeleton were added to the culture medium on day 1 to evaluate their effects on the reprogramming process. […] The reprogramming efficiency was determined as the percentage of TUBB3*-iN cells normalized to the number of cells plated at 24 hours post-seeding (i.e., day 0). First, we tested whether disruption of cytoskeletal contractility could influence the direct reprogramming of fibroblasts into neurons using blebbistatin, a non-muscle myosin II inhibitor^22-24. We observed that iN cells could be derived in the absence and presence of blebbistatin (FIG. 3A). […] In particular, treatment with 10 μM blebbistatin generated the highest number of iN cells and increased the reprogramming efficiency by approximately 4.5-fold compared to the control, therefore, this concentration was used in all subsequent experiments. […] As Ascl1 has been identified as a pioneer factor for iN reprogramming and transduction of Ascl1 alone is sufficient to generate iN cells^25,26, we further investigated whether blebbistatin could influence iN conversion by Ascl1 induction.
(§1) After transduction, mouse fibroblasts were seeded onto multi-well tissue culture-treated polystyrene dishes (Falcon) coated with laminin (0.1 mg/ml, Corning) at 4,000 cells per cm^2. Twenty-four hours after seeding, the medium was replaced to MEF medium containing doxycycline (2 μg/ml, Sigma). The following day (i.e., day 1) the medium was changed to N3 medium (DMEM/F12 [GIBCO]+N2 supplement [Invitrogen]+B27 supplement [Invitrogen]+1% penicillin/streptomycin [Gibco]+ doxycycline [2 μg/ml, Sigma]) and the cultures were maintained in this medium for the duration of the experiments. For Ascl1-only reprogramming, N3 medium was further supplemented with BDNF (5 ng/ml, R&D systems) and GDNF (5 ng/ml, R&D systems) after day 7. For cytoskeletal and cell adhesion disruptions, Blebbistatin (Millipore), Y-27632 (20 μM; Cayman Chemical), Nocodazole (0.3 μM; Sigma), Cytochalasin D (1 μM; Sigma), Jasplakinolide (0.05 μM; Cayman Chemical) and PF573228 (Sigma) were administered in N3 medium on day 1 and for the first 7 days of reprogramming (unless stated otherwise) and used at the indicated concentrations. Culture medium was replenished every 2 days during reprogramming to maintain the activity of the small molecules. After culturing for the desired length (14 days for BAM and 21 days for Ascl1 only), the induced neuronal (iN) cells were analyzed and the reprogramming efficiency was determined.
The reprogramming efficiency was determined by as the percentage of TUBB3^+ iN cells in each condition normalized to the number of cells plated at 24 hours post-seeding. Epifluorescence images were collected using a Zeiss Axio Observer.D1, Zeiss Axio Observer.Z1, and ImageXpress Micro XLS System (Molecular Devices), whereas confocal images were acquired using a Zeiss LSM710 microscope and Leica SP8 Confocal Laser Scanning microscope.

[2] = test system: ERK; assay: Downstream ERK signaling (Western blot)
Procedure: Fibroblasts were lysed and collected in Laemmli buffer ([…] Tris-HCl, 10% glycerol, 2% SDS, 5% 2-mercaptoethanol, 0.002% bromophenol blue) containing RIPA buffer (50 mM Tris-HCl, 150 mM NaCl, 1% Triton-X-100, 0.1% SDS, 10 mM NaF, 0.5% sodium deoxycholate) along with protease inhibitors (PMSF, Na3VO4 and Leupeptin) on ice. Protein lysates were centrifuged to pellet cell debris, and the supernatant was collected and used in further analysis. Protein samples were run using SDS-PAGE and transferred to polyvinylidene fluoride (PVDF) membranes. Membranes were blocked in 3% nonfat milk and incubated with primary antibodies overnight. Primary antibodies include pFAK, FAK, αSMA, Calponin, pERK, ERK, and GAPDH. Membranes were washed with Tris-Buffered Saline+0.05% Tween-20 and incubated with HRP-conjugated IgG secondary antibodies (Santa Cruz Biotechnologies) for one hour. Protein bands were visualized using Western Lightning™ Plus—Enhanced Chemiluminscence Substrate (Perkin Elmer Life & Analytical Sciences) and imaged on a ChemiDoc XRS system (Bio-Rad).

[3] = test system: fibroblasts; assay: Cell morphology, actin and focal adhesion immunostaining; details: 24 hours
Procedure: For immunostaining, cells were fixed with 4% paraformaldehyde (Electron Microscopy Sciences), permeabilized with 0.5% Triton-X-100 (Sigma), and blocked with 5% donkey serum (Jackson Immunoresearch) in phosphate buffered saline (PBS). For actin-cytoskeleton staining, samples were incubated with fluorescein isothiocyanate-conjugated phalloidin (Invitrogen) for 1 hour. Primary antibodies were incubated for 1 hour at room temperature or overnight at 4° C., followed by 1-hour incubation with Alexa 488 and/or Alexa 546-labeled secondary antibodies (Molecular Probes). Nuclei were stained with 4,6-diamino-2-phenylindole (DAPI) (Invitrogen).

[4] = test system: Ascl1-transduced fibroblasts; assay: Single-factor (Ascl1-only) iN reprogramming; details: 10 μM, relative to control
Procedure: as §1, with “For cytoskeletal and cell adhesion disruptions, Blebbistatin (Millipore), Y-27632 (20 μM; Cayman Chemical), Nocodazole (0.3 μM; Sigma), Cytochalasin D (1 μM; Sigma), Jasplakinolide (0.05 μM; Cayman Chemical) and PF573228 (Sigma) were administered in N3 medium on day 1 and for the first 7 days of reprogramming (unless stated otherwise) and used at the indicated concentrations. Culture medium was replenished every 2 days during reprogramming to maintain the activity of the small molecules.” left out
The reprogramming efficiency was determined by as the percentage of TUBB3^+ iN cells in each condition normalized to the number of cells plated at 24 hours post-seeding. […]

SMILES | dose response of reprogramming efficiency [1] | downstream ERK signaling [2] | concentration generating the highest number of iN cells [1] [µM] | time course of TUBB3+ iN cell generation ([1]; as early as day 5) | phase of reprogramming in which treatment is effective ([1]; early days 1-5, mid days 5-9, late days 9-13, 10 μM) | reprogramming efficiency in Tau-EGFP fibroblasts ([1]; mouse fibroblasts isolated from Tau-EGFP mice) | length of treatment sufficient to enhance reprogramming efficiency ([1]; treatment over timescales of 1 to 14 days) [days] | actin fibers [3] | paxillin punctate [3] | cell morphology and spreading ([3]; 10 μM) | iN cell generation from Ascl1-transduced fibroblasts [4]
CS(=O)(=O)c1cccc(CNc2nc(Nc3ccc4c(c3)CCC(=O)N4)ncc2C(F)(F)F)c1 [PF573228] | significantly increased the reprogramming efficiency in a biphasic manner; also recorded: promoted iN reprogramming in a biphasic manner | modulated downstream ERK signaling | – | – | – | – | – | – | – | – | –
Cc1ccc2c(c1)C(=O)C1(O)CCN(c3ccccc3)C1=N2 (stereo not drawn) [blebbistatin] | biphasic dose response | – | 10 | led to more efficient generation of TUBB3^+ iN cells than the control | most crucial during the early phase of reprogramming | enhanced reprogramming efficiency by blebbistatin was also confirmed | 3 | fewer intact actin fibers | fewer positive paxillin punctate | induced dramatic changes in cell morphology and reduced cell spreading | could generate significantly more iN cells from Ascl1-transduced fibroblasts relative to control
